Experimental data as given in ChEMBL document CHEMBL5050844 (2019).

Legend:
Assay type in all cases: functional, T cell line
[1] = Induction of anti-CD3/CD28 antibodies-stimulated human T cell activation at 1 uM assessed fold increase in IL-2 secretion measured by ELISA assay
[2] = Induction of anti-CD3/CD28 antibodies-stimulated human T cell activation at 1 uM assessed fold increase in CD25 expression measured by ELISA assay
[3] = Induction of anti-CD3/CD28 antibodies-stimulated human T cell activation at 0.3 uM assessed fold increase in IL-2 secretion measured by ELISA assay
[4] = Induction of anti-CD3/CD28 antibodies-stimulated human T cell activation at 0.3 uM assessed fold increase in CD25 expression measured by ELISA assay
[5] = Induction of anti-CD3 antibodies-stimulated human T cell activation at 1 uM assessed fold increase in IL-2 secretion measured by ELISA assay; further: reference of the scale not given here
[6] = Induction of anti-CD3/CD28 antibodies-stimulated human T cell activation at 4 uM assessed fold increase in IL-2 secretion measured by ELISA assay
[7] = Induction of anti-CD3/CD28 antibodies-stimulated human T cell activation at 4 uM assessed fold increase in CD25 expression measured by ELISA assay
[8] = Induction of anti-CD3 antibodies-stimulated human T cell activation at 8 uM assessed fold increase in IL-2 secretion measured by ELISA assay; further: reference of the scale not given here
[9] = Induction of anti-CD3 antibodies-stimulated human T cell activation at 8 uM assessed fold increase in CD25 expression measured by ELISA assay; further: reference of the scale not given here
[10] = Induction of anti-CD3 antibodies-stimulated human T cell activation at 1 uM assessed fold increase in CD25 expression measured by ELISA assay; further: reference of the scale not given here

Structure (SMILES)	fold change (FC) [1]	fold change (FC) [2]	fold change (FC) [3]	fold change (FC) [4]	fold change (FC) [5]	fold change (FC) [6]	fold change (FC) [7]	fold change (FC) [8]	fold change (FC) [9]	fold change (FC) [10]
Cn1cnnc1CC1(c2cccc(NC(=O)c3ccnc(C(F)(F)F)n3)c2)COC1	2.51	1.01	1.01	1.01	0.051	2.51	1.01	0.151	>=1.001	0.601
C[C@H](O)CNc1cc([C@H](C)Cc2nncn2C)cc(N2Cc3c(cccc3C(F)(F)F)C2=O)n1	1.01	1.01	1.01	1.01	0.051	1.01	1.01	0.101	0.601	0.601
Cn1cnnc1C[C@]1(c2cccc(N3Cc4c(cccc4C(F)(F)F)C3=O)c2)C[C@H](CO)C1	2.51	1.51	1.01	1.31	0.101	5	1.51	>=0.201	>=1.001	0.801
COc1nc(C(=O)Nc2cccc([C@H](C)Sc3nncn3C)c2)cc2ccccc12	5	1.01	2.51	<=1	<=0.05	>=7.5	1.01	0.051	0.801	<=0.6
C[C@H](Cc1nncn1C)c1cc(OCCO)nc(N2Cc3c(cccc3C(F)(F)F)C2=O)c1	1.01	1.01	1.01	1.01	0.051	2.51	1.31	>=0.201	>=1.001	0.601
C[C@H](Sc1nncn1C)c1cccc(NC(=O)c2cc(C(F)(F)F)ccn2)c1	1.01	1.01	<=1	1.01	<=0.05	1.01	1.01	0.101	>=1.001	0.601
C[C@H](Cc1nncn1C)c1cccc(NC(=O)c2cc(O[C@H]3CC[C@@H](O)C3)ccn2)c1	1.01	1.01	1.01	1.01	<=0.05	2.51	1.01	0.051	0.801	0.801
Cc1ccc(C(=O)Nc2cccc(C(C)C(F)(F)c3nncn3C)c2)nc1C1CC1 (stereo not given)	1.01	<=1	1.01	<=1	0.051	2.51	1.01	0.101	>=1.001	0.801
C[C@H](Sc1nncn1C)c1ccnc(NC(=O)c2cc(C3CC3)cc(C(F)(F)F)n2)c1	1.01	<=1	1.01	<=1	<=0.05	1.01	1.01	<=0.05	0.801	0.601
Cn1cnnc1[C@@H]1C[C@@H]1c1cccc(N2Cc3c(cc(C#N)cc3C(F)(F)F)C2=O)c1	1.01	1.01	1.01	1.01	<=0.05	2.51	1.01	0.101	0.801	0.601
C[C@H](Cc1nncn1C)c1cccc(NC(=O)c2cc(C(C)(C)O)c(Cl)cn2)c1	1.01	1.31	2.51	1.01	0.051	5	>=1.76	0.101	<=0.6	<=0.6
CN1CCN(c2cc3c(c(C(F)(F)F)c2)CN(c2cccc([C@@](C)(F)C(F)(F)c4nncn4C)c2)C3=O)CC1	1.01	1.01	1.01	1.01	0.051	2.51	1.01	0.151	>=1.001	0.601
Cn1cnnc1[C@H]1CC[C@H]1c1cccc(N2Cc3c(cccc3C(F)(F)F)C2=O)c1 (racemic)	1.01	<=1	<=1	<=1	<=0.05	1.01	1.01	0.101	<=0.6	<=0.6
C[C@H](Cc1nncn1C)c1cc(NCCO)nc(N2Cc3c(cccc3C(F)(F)F)C2=O)c1	1.01	1.01	1.01	1.01	0.051	2.51	1.01	0.151	>=1.001	0.601
C[C@H](Sc1nncn1C)c1cccc(NC(=O)c2cc(Cl)cc(C(F)(F)F)n2)c1	1.01	1.01	1.01	1.01	<=0.05	1.01	1.01	0.051	0.801	0.601
Cn1cnnc1[C@@H]1C[C@@H]1c1cccc(NC(=O)c2nc3c(C(F)(F)F)cccc3[nH]2)c1	1.01	1.01	1.01	1.01	0.101	2.51	1.01	>=0.201	0.801	0.601
